We go through one compound from patent publication US7531320B2, “Modulation of β-catenin/TCF-activated transcription” (priority 2003, dated 2009).

pIC50: −log10 of the molar value.

The test system of the assay is β-catenin/TCF reporter gene construct. The assay is described as follows: β-catenin/TCF luciferase reporter assay in SW480 cells. The assay is classed as cell-based, human. How it is done:
FIG. 1. COMPOUND 1 inhibits β-catenin/TCF transcription. • A(i) and A(ii). Structures of COMPOUND 1, COMPOUND 2, COMPOUND 3, COMPOUND 4, and COMPOUND 5. • B(i) and B(ii). […] SW480 cells (10^5), (FIG. 1B(i)), were transfected with β-catenin/TCF luciferase construct. Cells were treated with COMPOUND 1 (1-64 μM). 24 hours post treatment lysates were prepared and subjected to dual luciferase assay. The data is represented in different form in FIG. 1B(ii). • C. COMPOUND 1 has no effect on NFAT reporter construct. Stably transfected Jurkat cells, right panel, with an NFAT reporter construct, were stimulated with PMA (10 ng/ml)/lonomycin (1 μg/ml), and treated with COMPOUND 1 (0.781-50 μM). 24 hours post treatment lysates were prepared and subjected to dual luciferase assay. All experiments were performed in duplicate and the values plotted as means +/−standard deviation. • D. CBP is the molecular target of COMPOUND 1. Nuclear extracts of SW480 cells were incubated with streptavidin-agarose beads coated with COMPOUND 2 (25 μM). Beads were washed 3 times and the eluted were subjected to gel electrophoresis and immunoblotting, with anti-CBP antibodies. […] The lysates were desalted using G-25 1 cc columns (Pharmacia) to remove the unbound ^14C-labeled-COMPOUND 1, and ^14C-labeled-COMPOUND 1 incorporation was measured. […]

As for `O=C1C(Cc2ccc(O)cc2)N2C(=O)CCN(C(=O)NCc3ccccc3)C2CN1Cc1cccc2ccccc12` (centres unmarked) [COMPOUND 1], the “Change of IC50 of COMPOUND 1 on transfection of increasing concentration of CBP” value (SW480 cells cotransfected with CBP (not β-catenin), dose-dependent) is recorded as “increased the IC50”. This compound had a pIC50 (SW480 cells, 1-64 μM, 24 hours post treatment, dual luciferase assay) of 5.30.
